Results reported in patent publication US20220008401A1, “COMPOSITIONS AND METHODS FOR TREATING PULMONARY DISEASE WITH MATRIX METALLOPROTEINASE INHIBITORS” (DARSHA LLC, priority 2019, published 2022).

Key:
[1] = test system: neutrophils; test: MTT assay of neutrophil viability; assay type: cell-based, human; settings: 1 hour exposure, high and low concentrations
Description: To ensure the observed effects were not a result of reduced neutrophil viability, an MTT assay was utilized. Neutrophils were exposed to Compound 1 for 1 hour followed by addition of MTT to the culture medium for 30 minutes. Cells were then solubilized in DMSO and the absorbances were read on a microplate reader.

[2] = test system: integrin β1; test: Integrin β1 immunofluorescent staining of human neutrophils; assay type: cell-based; settings: Compound 1 treatment for 1 hour, n=3, p<0.05
From the text: Regulation of cell motility by the integrin β1 subunit is well-documented in multiple cell types, with several lines of evidence indicating MMPs play a significant role in expression and cellular localization of integrin β1 during neutrophil migration (Dumin J A, et al. Pro-collagenase-1 (matrix metalloproteinase-1) binds the alpha(2)beta(1) integrin upon release from keratinocytes migrating on type I collagen. J Biol Chem 2001; 276(31); Ugarte-Berzal E, et al. A 17-residue sequence from the matrix metalloproteinase-9 (MMP-9) hemopexin domain binds alpha4beta1 integrin and inhibits MMP-9-induced functions in chronic lymphocytic leukemia B cells. J Biol Chem 2012; 287(33)). To determine if MMP inhibition by Compound 1 interfered with integrin β1 expression in human neutrophils, cells were seeded onto glass chamber slides followed by Compound 1 treatment for 1 hour. Cells were fixed and immunofluorescent staining was performed for integrin β1 and staining intensity was measured using NIH ImageJ and standardized to the number of cells per field.

[3] = test system: LPS injured mice; test: Pulmonary wet to dry ratio (edema), LPS-injured mice, single inhaled dose; assay type: in vivo, C57BL/6J mice; settings: LPS 1.5 mg/kg; 24 hours later single aerosolized dose 35 mg/kg; right middle lobe; n=3/group (control 4.1, LPS 12.9)
Description: We next determined if inhaled Compound 1 attenuated specific features of acute inflammatory lung injury that were also observed in response to LPS. Again, 12-week-old male C57BL/6J mice were intranasally instilled with LPS (1.5 mg/kg of 1 mg/ml solution in sterile PBS). 24 hours later, these mice received a single dose of aerosolized MMP inhibitor (Compound 1, dissolved in PBS, 35 mg/kg) or PBS alone and a tail vein injection of FITC labeled albumin (FITC-albumin). One hour following nebulization, the mice were sacrificed. The left lung was fixed in formalin from each animal, paraffin embedded, sectioned and stained with H&E to examine histological features indicative of lung injury. These were achieved by visually scoring each slide based on a lung injury scoring system developed by the American Thoracic Society for animal models of inflammatory lung injury.
Edema was also assessed by determination of pulmonary wet to dry ratios. At the time of sacrifice the right middle lobe was removed from each animal and promptly weighed to obtain the wet weight. Thereafter, the lung tissue was dried in an oven at 65° C. for 72 hours and then weighed to obtain the dry weight.

[4] = target: MMP 9 (Mus musculus, UniProt P41245); test: MMP 9 Quantikine assay on BALF of LPS-injured mice, single inhaled dose; assay type: in vivo, C57BL/6J mice; design: assessed for MMP activity in both the bronchoalveolar lavage fluid (BALF) and lung tissue homogenate obtained from treated mice; from tissue; host or cells: bronchoalveolar lavage fluid (BALF) of LPS-injured C57BL/6J mice; settings: LPS 1.5 mg/kg intranasal; 24 hours later single aerosolized dose 35 mg/kg; sacrifice one hour after nebulization
Description: MMP 9 was selected as a target as it is a well-established mediator of inflammation in lung injury. 12-week-old male C57BL/6J mice were intranasally instilled with LPS (1.5 mg/kg of 1 mg/ml solution in sterile PBS). 24 hours later, these mice received a single dose of aerosolized MMP inhibitor (Compound 1, dissolved in PBS, 35 mg/kg) or PBS alone. One hour following nebulization, the mice were sacrificed and assessed for MMP activity in both the bronchoalveolar lavage fluid (BALF) and lung tissue homogenate obtained from treated mice. One hour following nebulization of Compound 1, the presence of the aerosolized Compound 1 in the lung was confirmed at concentrations >100 ng/g of tissue. MMP activity in BALF was determined using a commercially available MMP 9 Quantikine assay from R&D systems.

[5] = test system: neutrophils (PMN); test: Myeloperoxidase staining of lung sections, LPS-injured mice, single inhaled dose; assay type: in vivo; settings: LPS treated mice
Description: Since substantial literature indicates neutrophils (PMN) are critical mediators of inflammatory damage in injured lung, we next assessed if inhaled Compound 1 attenuated PMN infiltration of LPS injured lungs. To achieve this, mice were injured with LPS and 24 h later received a single inhaled dose of Compound 1 and were sacrificed 1 hour after dosing. PMN infiltration was assessed by examining lung sections (qualitatively) and BALF (quantitatively) from Compound 1 treated and untreated mice. To assess the effects of Compound 1 on PMN in situ, paraffin embedded lung sections (prepared as described previously) were stained for myeloperoxidase, a PMN marker.

[6] = test system: neutrophils (PMN); test: BALF cell counts (cytospin, DifQuik), LPS-injured mice, single inhaled dose; assay type: in vivo; settings: 1 hour following treatment
Description: Since substantial literature indicates neutrophils (PMN) are critical mediators of inflammatory damage in injured lung, we next assessed if inhaled Compound 1 attenuated PMN infiltration of LPS injured lungs. To achieve this, mice were injured with LPS and 24 h later received a single inhaled dose of Compound 1 and were sacrificed 1 hour after dosing. PMN infiltration was assessed by examining lung sections (qualitatively) and BALF (quantitatively) from Compound 1 treated and untreated mice. Quantitative examination was performed on BALF samples that were collected from each animal and subsequently subjected to cytospin centrifugation and DifQuik staining. The fraction of PMN present in each sample may be quantified by counting 300 cells of the inflammatory cell population across three different microscopic images. The obtained fraction may then be multiplied by the total cell count to estimate the number of PMNs present in the BALF.

[7] = LPS treated mice, single inhaled dose

Chain of MMP 9 (P41245 108-730): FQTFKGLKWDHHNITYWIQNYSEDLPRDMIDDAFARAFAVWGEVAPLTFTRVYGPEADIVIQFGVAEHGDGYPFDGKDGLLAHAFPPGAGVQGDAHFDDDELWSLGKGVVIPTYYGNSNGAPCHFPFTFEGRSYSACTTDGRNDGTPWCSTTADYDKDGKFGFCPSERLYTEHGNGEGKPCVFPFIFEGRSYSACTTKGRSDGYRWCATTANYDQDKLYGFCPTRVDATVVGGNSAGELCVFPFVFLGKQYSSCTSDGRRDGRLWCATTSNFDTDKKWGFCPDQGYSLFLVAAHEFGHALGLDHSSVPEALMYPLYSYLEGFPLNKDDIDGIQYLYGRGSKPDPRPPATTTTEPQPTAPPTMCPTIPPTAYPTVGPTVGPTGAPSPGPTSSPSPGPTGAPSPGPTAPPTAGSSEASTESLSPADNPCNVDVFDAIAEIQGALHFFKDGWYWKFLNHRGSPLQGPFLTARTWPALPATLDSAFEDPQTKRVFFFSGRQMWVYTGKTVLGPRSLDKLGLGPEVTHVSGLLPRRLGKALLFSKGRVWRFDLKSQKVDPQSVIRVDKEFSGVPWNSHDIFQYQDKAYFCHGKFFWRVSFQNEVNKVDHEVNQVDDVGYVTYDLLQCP

butanamide, N-hydroxy-2-[[(4-hydroxyphenyl)sulfonyl](3-pyridinylmethyl)amino]-3-methyl, hydrochloride, (2R) [Compound 1]
neutrophil viability (MTT, reductive capacity) [1]: no significant effect on neutrophil viability | integrin β1 fluorescence intensity per cell [2]: 2.88±1.23 RFU | pulmonary wet:dry ratio [3]: 7.3 | MMP 9 activity in BALF [4]: inhibits MMP 9 activity in the BALF | PMN infiltration into the lung parenchyma (myeloperoxidase staining) [5]: attenuates PMN infiltration into the lung parenchyma | total PMN counts in the BALF ([6]; LPS then 24 h later single inhaled dose, n=5/group, p=0.01 (LPS/PBS 5.3×10^6)): 1.2×10^6 neutrophils/ml | macrophage count in the BALF [6, 7]: remained unchanged | overall cell count in BALF [6, 7]: significant reduction
